Measurements published in US20220008567A1, “LIQUIDLY INJECTABLE, SELF-STABILIZING BIOPOLYMERS FOR THE DELIVERY OF RADIONUCLIDE” (priority 2018, published 2022).

Experiments:
[1] = test system: BxPc3 cells; experiment: Cell cycle distribution by propidium iodide flow cytometry (G2/M arrest); format: cell-based, human; conditions: 1 nM of equivalent paclitaxel
Method: As radiation sensitization is driven by late G2/M arrest, the effects of paclitaxel on cell cycle progression were examined. BxPc3 cells were treated in vitro with 1 nM of equivalent paclitaxel, stained with propidium iodide to measure relative DNA quantities, and analyzed by flow cytometry to assess the cell cycle distribution over time.

[2] = test system: BxPc3 cells; experiment: MTS cell proliferation assay (in vitro cytotoxicity)
Method: (§1) In vitro cytotoxicity assessment. All cell lines were cultured in monolayers in sterile, vented culture flasks (Corning). Cells were passaged, collected, and then counted with 0.4% Trypan Blue (Thermo Fisher Scientific). Cells were then formulated in their respective media and plated in 96-well plates at 5,000 cells per well in 100 μL. After allowing cells to incubate at 37° C. for 12 h, drugs were then added to the wells. Each drug was formulated at the highest concentration in the cell media and then serially diluted. A PTX equivalent concentration between 10-4 and 10-12 M of each construct was plated in quadruplicate and allowed to incubate for 72 h. 20 μL of CellTiter 96® AQueoous One solution (Promega) was then added to each well. After 1.5 h, the absorbance of each plate was read at 490 nm and normalized to untreated cells to determine the relative cell survival. The half effective concentration (EC50) was calculated as the inflection between the curve's maxima and minima.

[3] = test system: BxPc3, MIA PaCa-2 and AsPc-1 pancreatic cells; experiment: In vitro cytotoxicity by MTS across pancreatic cell lines; conditions: FIG. 5
Method: as §1

CC(=O)O[C@H]1C(=O)[C@@]2(C)[C@H]([C@H](OC(=O)c3ccccc3)[C@]3(O)C[C@H](OC(=O)[C@H](O)[C@@H](NC(=O)c4ccccc4)c4ccccc4)C(C)=C1C3(C)C)[C@]1(OC(C)=O)CO[C@@H]1C[C@@H]2O [PTX, paclitaxel]
peak proportion of cell population in G2/M phase [1]: 37.9%
time to maximum proportion of G2/M cells [1]: 12 h
in vitro cytotoxicity ([2]; FIG. 4A): nanomolar
EC50 ([2]; Homo sapiens, BXPC-3, 72 h, read-out: relative half-inhibitory concentration (EC50)): 3.7 nM
cytotoxicity in each cell line [3]: nanomolar cytotoxicity
